Results: patent publication US20250017940A1, “SELECTIVE PEPTIDOMIMETIC MODULATORS OF CAV2.2 (N-TYPE) VOLTAGE-GATED CALCIUM CHANNELS AND USES THEREOF” (New York University, priority 2023, published 2025)

What was measured:
total Ca2+ currents = assay: Whole-cell patch-clamp, total Ca2+ currents in small-to-medium DRG neurons; format: cell-based, rat; settings: 20 μM overnight; normalized to 0.1% DMSO control (1.00±0.06)
Experimental: Recordings were obtained from acutely dissociated DRG neurons as described earlier (Bellampalli et al., 2019). Patch-clamp recordings were performed at room temperature (22-24° C.). Currents were recorded using an EPC 10 Amplifier-HEKA (HEKA Elektronik, Ludwigshafen, Germany) linked to a computer with Patchmaster software. DRG neurons were incubated overnight (˜16-24 hours) with 20 μM of CBD3063.
For total calcium current (ICa^2+) recordings, the external solution consisted of the following (in mM): 110 N-methyl-D-glucamine, 10 BaCl2, 30 TEA-Cl, 10 HEPES, 10 glucose, and 0.001 TTX (pH 7.29 adjusted with TEA-OH, and mOsm/L=310). Patch pipettes were filled with an internal solution containing (in mM): 150 CsCl2, 10 HEPES, 5 Mg-ATP, and 5 BAPTA, (pH 7.2 adjusted with CsOH, and mOsm/L-305). Peak Ca^2+ current was acquired by applying 200-millisecond voltage steps from −70 to +60 mV in 10-mV increments from a holding potential of −90 mV to obtain the current-voltage (I-V) relation. To measure the different subtypes of Ca^2+ channels, DRGs were treated with a Cav inhibitor cocktail omitting the inhibitor specific to the subtype being tested (e.g., to measure Cav2.2 currents, ω-conotoxin GVIA is omitted): Nifedipine (10 μM, L-type), ω-Conotoxin-GVIA (500 nM, […]) (Feng, et al., 2001), SNX482 (200 nM, R-type) (Newcomb et al., 1998), ω-agatoxin (200 nM, P/Q-type) (Mintz et al., 1992), TTA-P2 (1 μM, T-type) (Choe et al., 2011).
Normalization of currents to each cell's capacitance (pF) was performed to allow for collection of current density data. For I-V curves, functions were fitted to data using a non-linear least squares analysis. I-V curves were fitted using double Boltzmann functions:
where x is the pre-pulse potential, V1/2 is the mid-point potential, and k is the corresponding slope factor for single Boltzmann functions. Double Boltzmann fits were used to describe the shape of the curve, not to imply the existence of separate channel populations. Numbers 1 and 2 simply indicate first and second mid-points; a along with g are fitting parameters.
Activation curves were obtained from the I-V curves by dividing the peak current at each depolarizing step by the driving force according to the equation: G=I/(Vmem-Erev), where I is the peak current, Vmem is the membrane potential and Erev is the reversal potential. The conductance (G) was normalized against the maximum conductance (Gmax). For total and the different subtypes of Ca^2+ currents, steady-state inactivation (SSI) curves were obtained by applying an H-infinity protocol that consisted of 1.5-seconds conditioning pre-pulses from −100 to +30 mV in 10-mV increments followed by a 20-millisecond test pulse to +10 mV. For Na^+ currents, SSI curves were obtained by applying an H-infinity protocol that consisted of 1-second conditioning pre-pulses from −120 to +10 mV in 10-mV increments followed by a 200-millisecond test pulse to +10 mV. Inactivation curves were obtained by dividing the peak current recorded at the test pulse by the maximum current (Imax). Activation and SSI curves were fitted with the Boltzmann equation.

[1] = Preliminary tests of analgesic properties

SMILES	normalized peak total ICa2+ density (total Ca2+ currents)	analgesic properties [1]
N=C(NCCCN1CCc2ccccc2C1)NCc1ccccc1 [CBD3065, N′-benzyl-N-[3-(3,4-dihydro-1H-isoquinolin-2-yl)propyl]guanidine]	0.52±0.07 ratio to DMSO control	did not exhibit analgesic properties
COc1ccccc1CNC(=N)NCCCN1Cc2ccccc2C1 [CBD3074, N-[3-(1,3-dihydroisoindol-2-yl)propyl]-N′-[(2-methoxyphenyl)methyl]guanidine]	0.58±0.06 ratio to DMSO control	
